Assay [1] has as its system HBL-100. Put plainly: (§1) Cytotoxic effect against HBL-100 (human breast cancer cell lines) by MTT assay at 10 ug concentration. It counts as functional, cell-based. (Tetrazolium dyes change colour on reduction, which living cells bring about.)
In assay [2] the test system is HBL-100. Description: Cytotoxic effect against HBL-100 (human breast cancer cell lines) by MTT assay at 100 ug concentration. Format: functional.
In assay [3] the test system is HBL-100. The assay is described as §1. It counts as functional.

SMILES strings stand for the structures.

Usually Inhibition stands for how much of the control response was suppressed. In the assay on HBL-100 [1], `CC1(C)O[C@@H]2[C@H](O1)[C@@H]1OCc3ccccc3C[C@@H](O)[C@H]2O1` showed an Absorbance of 0.153. Moreover, in the assay with HBL-100 [2], the Asorbance is on record as 0.081, the Inhibition was 63.3% and the Viability was 36.69%. In the assay with HBL-100 [3], this compound gave an Inhibition of 30.62% and a Viability of 69.37%.

Source of the values: ChEMBL document CHEMBL1146796, “Design, synthesis and cytotoxic studies on the simplified oxy analog of eleutherobin” (2004).
